Assay [1] has as its system potassium channels. As to the kind of experiment: Membrane Hyperpolarization (MHP) in Guinea-Pig Bladder (GPB) Cells, FLIPR with DiBAC(4)3. The class given is cell-based. The settings on record: for EC50: concentration eliciting 50% of the test sample's maximal response; for Maximal Response (% P1075): maximal steady-state hyperpolarization relative to 10 μM P1075 (100%). The protocol:
Compounds were evaluated for potassium channel opening activity using primary cultured quinea-pig urinary bladder (GPB) cells.
For the preparation of urinary bladder smooth muscle cells, urinary bladders were removed from male quinea-pigs (Hartley, Charles River, Wilmington, Mass.) weighing 300-400 g and placed in ice-cold Ca^2+ -free Krebs solution (Composition, mM: KCl, 2.7; KH2 PO4, 1.5; NaCl, 75; Na2 HPO4, 9.6; Na2 HPO4.7H2 O, 8; MgSO4, 2; glucose, 5; HEPES, 10; pH 7.4). Cells were isolated by enzymatic dissociation as previously described with minor modifications in (Klockner, U. and Isenberg, G., Pflugers Arch. 1985, 405, 329-339), hereby incorporated by reference. The bladder was cut into small sections and incubated in 5 mL of the Kreb's solution containing 1 mg/mL collagenase (Sigma, St. Louis, Mo.) and 0.2 mg/mL pronase (Calbiochem, La Jolla, Calif.) with continuous stirring in a cell incubator for 30 minutes. The mixture was then centrifuged at 1300×g for 5 minutes, and the pellet resuspended in Dulbecco's PBS (GIBCO, Gaithersburg, Md.) and recentrifuged to remove residual enzyme. The cell pellet was resuspended in 5 mL growth media (composition: Dulbecco's modified Eagle's medium supplemented with 10% fetal bovine serum, 100 units/niL penicillin, 100 units/mL streptomycin and […] amphotericin B) and further dissociated by pipetting the suspension through a flame-polished Pasteur pipette and passing it through a polypropylene mesh membrane (Spectrum, Houston, Tex.). The cell density was adjusted to 100,000 cells/mL by resuspension in growth media. Cells were plated in clear-bottomed black 96-well plates (Packard) for membrane potential studies at a density of 20,000 cells/well and maintained in a cell incubator with 90% air: 10% CO2 until confluent. Cells were confirmed to be of smooth muscle type by cytoskeletal staining using a monoclonal mouse anti human-α-smooth muscle actin (Biomeda, Foster City, Calif.).
Functional activity at potassium channels was measured by evaluating changes in membrane potential using the bis-oxonol dye DiBAC(4)3 (Molecular Probes) in a 96-well cell-based kinetic assay system, Fluorescent Imaging Plate Reader (FLIPR) (K. S. Schroeder et al., J. Biomed. Screen., v. 1 pp. 75-81 (1996)), hereby incorporated by reference. DiBAC(4)3 is an anionic potentiometric probe which partitions between cells and extracellular solution in a membrane potential-dependent manner. With increasing membrane potential (for example, K^+ depolarization), the probe further partitions into the cell; this is measured as an increase in fluorescence due to dye interaction with intracellular lipids and proteins. Conversely, decreasing membrane potential (hyperpolarizationby potassium channel openers) evokes a decrease in fluorescence.
Confluent quinea-pig urinary bladder cells cultured in black clear-bottomed96-well plates were rinsed twice with […] assay buffer (composition, mM: HEPES, 20; NaCl, 120; KCl, 2; CaCl2, 2; MgCl2, 1; glucose, 5; pH 7.4 at 25 ° C.) containing 5 μM DiBAC(4)3 and incubated with […] of the buffer in a cell incubator for 30 minutes at 37 ° C. to ensure dye distribution across the membrane. After recording the baseline fluorescence for 5 minutes, the reference or test compounds, prepared at 10 times the concentration in the assay buffer, were added directly to the wells. Changes in fluorescence were monitored for an additional 25 minutes. Hyperpolarization responses were corrected for any background noise and were normalized to the response observed with 10 μM of the reference compound P1075, N"-cyano-N-(tert-pentyl)-N'-(3-pyridinyl)quanidine, which was assigned as 100%. P1075 is a potent opener of smooth muscle KATP channels (Quast et al., Mol. Pharmacol., v. 43 pp. 474-481 (1993)) and was prepared using the procedures described in (Manley, J. Med. Chem. (1992) 35, 2327-2340), hereby incorporated by reference. […]

Assay [2] concerns potassium channel. Briefly: Functional Potassium Channel Opening Activity in Isolated Bladder Strips (electrically stimulated twitch). The note with it: Landrace pig bladder strips; for Index: ED50 of P1075 divided by ED50 of test agonist, averaged over tissues; for Efficacy (% P1075): maximal efficacy relative to P1075, field stimulation 0.05 Hz; for pD2: negative logarithm of ED50. How it is done: Compounds of the present invention were evaluated for functional potassium channel opening activity using tissue strips obtained from Landrace pig bladders.
Landrace pig bladders were obtained from female Landrace pigs of 9-30 kg. Landrace pigs wer eutanized with an intraperitoneal injection of pentobarbital solution, Somlethal®, J. A. Webster Inc., Sterling Mass. The entire bladder was removed and immediately placed into Krebs Ringer bicarbonate solution (composition, mM: NaCl, 120; NaHCO3, 20; dextrose, 11; KCl, 4.7; CaCl2, 2.5; MgSO4, 1.5; KH2 PO4, 1.2; K2 EDTA, 0.01, equilibrated with 5% CO2 /95% O2 pH 7.4 at 37 ° C.). Propranolol (0.004 mM) was included in all of the assays to block β-adrenoceptors. The trigonal and dome portions were discarded. Strips 3-5 mm wide and 20 mm long were prepared from the remaining tissue cut in a circular fashion. The mucosal layer was removed. One end was fixed to a stationary glass rod and the other to a Grass FT03 transducer at a basal preload of 1.0 gram. Two parallel platinum electrodes were included in the stationary glass rod to provide field stimulation of 0.05 Hz, 0.5 milli-seconds at 20 volts. This low frequency stimulation produced a stable twitch response of 100-500 centigrams. Tissues were allowed to equilibrate for at least 60 minutes and primed with 80 mM KCl. A control concentration response curve (cumulative) was generated for each tissue using the potassium channel opener P1075 as the control agonist. […] After a 60 minute rinsing period, a concentration response curve (cumulative) was generated for the test agonist in the same fashion as that used for the control agonist P1075. The maximal efficacy of each compounds (expressed as % relative to P1075) is reported. The amount of agent necessary to cause 50% of the agent's maximal response (ED50) was calculated using "ALLFIT" (DeLean et al., Am. J. Physiol., 235, E97 (1980)), hereby incorporated by reference, and agonist potencies were expressed as pD2 (the negative logarithm). Agonist potencies were also expressed as an index relative to P1075. The index was calculated by dividing the ED50 for P1075 by the ED50 for the test agonist in a given tissue. Each tissue was used for only one test agonist, and the indices obtained from each tissue were averaged to provide an average index of potency.

In assay [3] the target is smooth muscle KATP channels (Rattus norvegicus, UniProt Q63563). The note with it: Quast et al., Mol. Pharmacol., v. 43 pp. 474-481 (1993); cited from earlier work.

The structures appear in SMILES notation.

Chain of smooth muscle KATP channels (Q63563 1-1545 isoform Q63563-2): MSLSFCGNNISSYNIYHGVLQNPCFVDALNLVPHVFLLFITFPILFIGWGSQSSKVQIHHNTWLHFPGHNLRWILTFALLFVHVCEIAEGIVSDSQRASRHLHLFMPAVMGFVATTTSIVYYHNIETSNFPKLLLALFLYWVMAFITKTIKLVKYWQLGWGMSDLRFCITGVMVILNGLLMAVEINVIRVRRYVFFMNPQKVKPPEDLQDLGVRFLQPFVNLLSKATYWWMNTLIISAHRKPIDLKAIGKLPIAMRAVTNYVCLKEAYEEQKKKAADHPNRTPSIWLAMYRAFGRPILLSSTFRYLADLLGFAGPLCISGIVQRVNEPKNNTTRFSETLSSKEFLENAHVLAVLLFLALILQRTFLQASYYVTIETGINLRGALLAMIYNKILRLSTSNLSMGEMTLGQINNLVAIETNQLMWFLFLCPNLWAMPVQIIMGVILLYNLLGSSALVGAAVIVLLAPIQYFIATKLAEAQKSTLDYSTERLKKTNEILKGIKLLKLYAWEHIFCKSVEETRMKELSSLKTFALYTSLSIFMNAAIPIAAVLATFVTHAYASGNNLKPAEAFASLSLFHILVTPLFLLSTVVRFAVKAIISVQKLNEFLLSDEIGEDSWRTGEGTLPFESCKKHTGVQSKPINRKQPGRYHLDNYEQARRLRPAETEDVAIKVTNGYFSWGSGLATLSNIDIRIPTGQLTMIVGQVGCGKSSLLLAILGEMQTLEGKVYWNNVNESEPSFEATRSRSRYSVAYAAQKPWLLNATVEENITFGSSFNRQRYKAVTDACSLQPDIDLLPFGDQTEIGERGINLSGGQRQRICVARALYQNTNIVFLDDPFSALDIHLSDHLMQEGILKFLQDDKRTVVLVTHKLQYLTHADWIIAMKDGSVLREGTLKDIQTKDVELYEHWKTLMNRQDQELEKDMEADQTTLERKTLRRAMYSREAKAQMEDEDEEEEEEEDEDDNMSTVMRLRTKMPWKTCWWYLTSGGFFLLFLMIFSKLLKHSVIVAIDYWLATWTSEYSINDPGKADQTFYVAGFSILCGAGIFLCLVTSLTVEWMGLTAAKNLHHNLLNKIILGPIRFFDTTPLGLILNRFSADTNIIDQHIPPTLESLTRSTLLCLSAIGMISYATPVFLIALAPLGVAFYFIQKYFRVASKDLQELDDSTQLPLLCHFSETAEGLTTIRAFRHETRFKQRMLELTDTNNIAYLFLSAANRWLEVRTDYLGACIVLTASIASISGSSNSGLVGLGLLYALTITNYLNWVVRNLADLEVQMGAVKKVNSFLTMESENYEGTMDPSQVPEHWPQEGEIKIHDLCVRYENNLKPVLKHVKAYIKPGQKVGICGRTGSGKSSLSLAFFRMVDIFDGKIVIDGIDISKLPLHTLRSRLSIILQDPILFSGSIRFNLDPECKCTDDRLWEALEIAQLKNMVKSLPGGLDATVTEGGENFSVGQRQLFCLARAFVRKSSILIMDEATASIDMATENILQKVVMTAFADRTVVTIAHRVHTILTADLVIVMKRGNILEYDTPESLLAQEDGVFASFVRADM
Chain of smooth muscle KATP channels (Q63664 whole entry partner): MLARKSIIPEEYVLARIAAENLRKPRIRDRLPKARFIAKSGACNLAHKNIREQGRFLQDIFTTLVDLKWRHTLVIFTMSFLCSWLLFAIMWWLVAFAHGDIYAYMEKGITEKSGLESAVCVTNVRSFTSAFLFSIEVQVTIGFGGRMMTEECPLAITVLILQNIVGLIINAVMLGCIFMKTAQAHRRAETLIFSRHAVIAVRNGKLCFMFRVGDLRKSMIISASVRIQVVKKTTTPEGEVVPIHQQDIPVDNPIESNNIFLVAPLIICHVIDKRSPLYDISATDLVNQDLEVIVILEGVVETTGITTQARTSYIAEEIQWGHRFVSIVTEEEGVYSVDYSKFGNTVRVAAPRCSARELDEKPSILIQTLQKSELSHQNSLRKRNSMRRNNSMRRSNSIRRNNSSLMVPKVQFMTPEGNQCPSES

As usually defined, the EC50 is the concentration that produces a half-maximal response. The low end stands for an effect from little substance, the high end for a need for much substance. `O=C1CCCC2=C1C(c1ccc(F)c(Br)c1)n1nccc1N2` (single isomer, unassigned; (+)) [Example 16, (+) 9-(3-bromo-4-fluorophenyl)-5,6,7,9-tetrahydropyrazolo [5,1-b]quinazolin-8(4H)-one]: in assay [1], the EC50 was 20 nM and the “Maximal Response (% P1075)” value is 105 % P1075. For the same molecule, in assay [2], the Index amounted to 0.28, the “Efficacy (% P1075)” value is reported as 95 % P1075 and the pD2 was 6.34.
On the same counts, the results for `O=C1CCCC2=C1C(c1ccc(F)c(Br)c1)n1nccc1N2` (single isomer, unassigned; (-)) [Example 15, (-) 9-(3-bromo-4-fluorophenyl)-5,6,7,9-tetrahydropyrazolo[5,1-b]quinazolin-8(4H)-one] are 51 nM, 103 % P1075, 0.21, 100 % P1075 and 6.67.
For the molecule `O=C1CCCC2=C1C(c1ccc(F)c(Br)c1)n1nccc1N2` (stereo not drawn) [Example 1], in assay [1], the EC50 was found to be 31 nM and the “Maximal Response (% P1075)” value turned out to be 87 % P1075. Also, in assay [2], the Index came out at 0.26, the “Efficacy (% P1075)” value came to 96 % P1075 and the pD2 is given as 6.47.
As to `O=C1CSCC2=C1C(c1ccc(F)c(Br)c1)n1nccc1N2` (stereo not drawn) [Example 2, 9-(3-bromo-4-fluorophenyl)-5,9-dihydro-4H-pyrazolo[1,5-a]thiopyrano[3,4-d]pyrimidin-8(7H)-one], in assay [1], the EC50 was 40 nM and the “Maximal Response (% P1075)” value is 100 % P1075.
For the molecule `O=C1CCCC2=C1C(c1cccc3ccccc13)n1nccc1N2` (stereo not drawn) [Example 3, 9-(1-naphthyl)-5,6,7,9-tetrahydropyrazolo[5,1-b]quinazolin-8(4H)-one], in assay [1], the response was half-maximal at 24000 nM (EC50) and the “Maximal Response (% P1075)” value worked out at 34 % P1075.
Take `O=C1CCCC2=C1C(c1ccc3ccccc3c1)n1nccc1N2` (stereo not drawn) [Example 4, 9-(2-naphthyl)-5,6,7,9-tetrahydropyrazolo[5,1-b]quinazolin-8(4H)-one]: in assay [1], the response was half-maximal at 429 nM (EC50) and the “Maximal Response (% P1075)” value is 96 % P1075.
The matching figures for `O=C1CCCC2=C1C(c1ccc(Br)c(Br)c1)n1nccc1N2` (stereo not drawn) [Example 5, 9-(3 4-dibromophenyl)-5,6,7,9-tetrahydropyrazolo[5,1-b]quinazolin-8(4H)-one]: 122 nM and 98 % P1075.
The matching figures for `O=C1CCCC2=C1C(c1ccc(Cl)c(Cl)c1)n1nccc1N2` (stereo not drawn) [Example 6, 9-(3,4-dichlorophenyl)-5,6,7,9-tetrahydropyrazolo [5,1-b]quinazolin-8(4H)-one]: 130 nM and 95 % P1075.
The matching figures for `O=C1CCCC2=C1C(c1cccc(Br)c1)n1nccc1N2` (stereo not drawn) [Example 7, 9-(3-bromophenyl)-5,6,7,9-tetrahydropyrazolo[5,1-b]quinazolin-8(4H)-one]: 550 nM and 98 % P1075.
Consider `O=C1CCCC2=C1C(c1cccc(Cl)c1)n1nccc1N2` (stereo not drawn) [Example 8, 9-(3-chlorophenyl)-5,6,7,9-tetrahydropyrazolo[5,1-b]quinazolin-8(4H)-one], for which, in assay [1], the EC50 came to 1120 nM and the “Maximal Response (% P1075)” value was determined as 92 % P1075.
Regarding `O=C1CCCC2=C1C(c1ccc(Cl)c(C(F)(F)F)c1)n1nccc1N2` (stereo not drawn) [Example 9, 9-[4-chloro-3-(trifluoromethyl)phenyl]-5,6,7,9-tetrahydropyrazolo[5,1-b]quinazolin-8(4H)-one], in assay [1], the EC50 was 187 nM and the “Maximal Response (% P1075)” value was found to be 94 % P1075.
On the same counts, the results for `O=C1CCCC2=C1C(c1ccc(F)c(C(F)(F)F)c1)n1nccc1N2` (stereo not drawn) [Example 10, 9-[4-fluoro-3-(trifluoromethyl)phenyl]-5,6,7,9-tetrahydropyrazolo[5,1-b]quinazolin-8(4H)-one] are 290 nM and 100 % P1075.
On the same counts, the results for `O=C1CCCC2=C1C(c1cccc(OC(F)(F)F)c1)n1nccc1N2` (stereo not drawn) [Example 11, 9-[3-(trifluoromethoxy)phenyl]-5,6,7,9-tetrahydropyrazolo[5,1-b]quinazolin-8(4H)-one] are 1710 nM and 90 % P1075.
The matching figures for `N#Cc1cccc(C2C3=C(CCCC3=O)Nc3ccnn32)c1` (stereo not drawn) [Example 12, 9-(3-cyanophenyl)-5,6,7,9-tetrahydropyrazolo[5,1-b]quinazolin-8(4H)-one]: 2860 nM and 85 % P1075.
As to `Cc1cccc(C2C3=C(CCCC3=O)Nc3ccnn32)c1` (stereo not drawn) [Example 13, 9-(3-methylphenyl)-5,6,7,9-tetrahydropyrazolo[5,1-b]quinazolin-8(4H)-one], in assay [1], the EC50 was 10000 nM and the “Maximal Response (% P1075)” value is 50 % P1075.
In the case of `O=C1OCC2=C1C(c1ccc(F)c(Br)c1)n1nccc1N2` (stereo not drawn) [Example 14, 8-(3-bromo-4-fluorophenyl)-5,8-dihydro-4H,7H-furo[3,4-d]pyrazolo[1,5-a]pyrimidin-7-one], in assay [1], the EC50 came out at 258 nM and the “Maximal Response (% P1075)” value is on record as 89 % P1075.
The matching figures for `O=S1(=O)CCCC2=C1C(c1ccc(F)c(Br)c1)n1nccc1N2` (stereo not drawn) [Example 17]: 910 nM and 89 % P1075.
Consider `CCC(C)(C)NC(=NC#N)Nc1cccnc1` [Example P1075, N"-cyano-N-(tert-pentyl)-N'-(3-pyridinyl)quanidine, reference compound], for which the “elimination of the stimulated twitch” value in assay [2] (dose dependent over 10^-9 to 10^-5 M) is on record as “completely eliminated the stimulated twitch”. Also, the “opener of smooth muscle KATP channels” value in assay [3] is “potent opener”.
